# Measured values reported in PMC8456852 (Clinical Pharmacology in Drug Development, 2021).
# What was measured:
# [1] = cited from earlier work; for Maximum concentration: studied as individual components, abacavir 600 mg and lamivudine 300 mg
# [2] = for Geometric mean area under the concentration‐time curve: AUC type not specified; for CL/F (apparent clearance): Overall (N = 12), healthy Japanese, arithmetic mean (SD); for AUC0‐∞, healthy Japanese (this study) vs ING114580 / Maximum concentration, healthy Japanese (this study) vs ING114580: greater in healthy Japanese participants
# clinical = conditions: human, in vivo, po
# [3] = system: adenosine triphosphate–binding cassette subfamily G transport protein (ABCG2); conditions: cited from earlier work
# [4] = system: uridine diphosphate glucuronosyltransferase family 1 member A1 (UGT1A1); conditions: cited from earlier work
# [5] = cited from earlier work
# [6] = N = 12 healthy Japanese, single oral dose, fasted
# [7] = dolutegravir twice‐daily dosing
"Geometric mean CL/F [2, 6] [L/h]","Geometric mean maximum plasma concentration [2, 6] [µg/mL]","Geometric mean area under the concentration‐time curve [2, 6] [ng·h/mL]","CL/F (apparent clearance) ([2]; single oral dose, fasted)","AUC0‐∞, healthy Japanese (this study) vs ING114580 [2]","Maximum concentration, healthy Japanese (this study) vs ING114580 [2] [fold]",Cmax (clinical; both) [ng/mL],Tmax (clinical; both) [h],concentration at 24 h (clinical; both) [ng/mL],CL/F (clinical; female) [mL/min/kg],Cmax (clinical; female) [ng/mL],Tmax (clinical; female) [h],concentration at 24 h (clinical; female) [ng/mL],half-life (clinical; female) [h],CL/F (clinical; male) [mL/min/kg],Cmax (clinical; male) [ng/mL],Tmax (clinical; male) [h],concentration at 24 h (clinical; male) [ng/mL],half-life (clinical; male) [h],SMILES,Maximum concentration [1] [µg/mL],further results
32.9,5.22,18200,33.7 (8.54) L/h,≈ 1.3 fold,1.3,5380,1.01,6.75,10.5,5770,1.51,6.6,2.87,9,4600,0.99,7.1,2.77,"Nc1nc(NC2CC2)c2ncn([C@H]3C=C[C@@H](CO)C3)c2n1 [Abacavir, abacavir]",4.26 ± 1.19,half-life (clinical; both): 2.84 h
0.678,4.13,71600,0.691 (0.145) L/h,,,4210,3.5,1150,0.167,4450,2.98,1130,13.7,0.167,3750,4,1180,14.6,"C[C@@H]1CCO[C@H]2Cn3cc(C(=O)NCc4ccc(F)cc4F)c(=O)c(O)c3C(=O)N12 [Dolutegravir, dolutegravir]",,"Substrate of ABCG2 [3]: substrate; Cmax (geometric mean) [1, 7]: 4150 ng/mL; Geometric mean AUC from time 0 to 24 hours [1, 7]: 75100 ng·h/mL; Increase in dolutegravir exposure with atazanavir (UGT1A1 inhibitor) ([1]; once‐daily dosing with atazanavir): ≈ 2 fold; Substrate of UGT1A1 [4]: substrate; Exposure (geometric mean AUC0‐∞) of dolutegravir vs abacavir and lamivudine [2, 6]: ≈ 4 times; tmax relative to abacavir (times more slowly) [2, 6]: 3 times; Exposure, this study vs ING115381 ([2]; higher than in healthy Japanese participants given dolutegravir 50 mg alone): 1.9 fold; Exposure in individuals with ABCG2 genetic variant 421AA [5]: demonstrably higher; Exposure increase in UGT1A*6 heterozygous individuals ([5]; evaluation of 9 phase 1/2 clinical studies): ≈ 1.4 fold; Total magnitude of change in exposure from body weight ([5]; population PK models): < 30%; Oral bioavailability, higher in women than men ([5]; population PK): ≈ 21%"
,3.35,16600,,≈ 1.3 fold,1.6,3430,2.98,38.7,,3650,2.98,32.6,,,2980,2.5,50.9,,"Nc1ccn([C@@H]2CS[C@H](CO)O2)c(=O)n1 [Lamivudine, lamivudine]",2.04 ± 0.54,"tmax relative to abacavir (times more slowly) [2, 6]: 3 times; Median tmax, this study vs EPZ104807 ([2]; higher than previously reported in Japanese participants (abacavir/lamivudine formulation)): 1.5 fold"
